Patent publication US12178840B2, “Method and compositions comprising a CT20 peptide” (UNIVERSITY OF CENTRAL FLORIDA RESEARCH FOUNDATION, INC., priority 2014, dated 2024)
Residues, ends and D or L forms follow the SMILES beside them.

Columns and labels:
MDA-MB-436 cells = type: cell-based, human; settings: 75 ug/mL, time course
Description: (§1) Measurement of cell viability: Cells at 60% confluency were treated with CT20p at a dose of 75 ug/mL for varying lengths of time. Following treatment, cells were collected and stained with Sytox AADvanced and F2N12S Violet Ratiometric Apoptosis kit (Invitrogen). Data was acquired by flow cytometry on a FACS Canto (BD Biosciences), and analyzed with FCSExpress software (DeNovo).
(§2) The cytotoxicity of CT20p to the cell lines was also assessed. To do this, cells were treated with the effective dose of CT20p in a time course-experiment, and membrane symmetry and permeability were examined by flow cytometry (FIG. 5B). […] BT-549 cells, on the other hand, were resistant to the effects of the peptide.

BT-549 cells = test: Cell viability by flow cytometry (Sytox AADvanced / F2N12S), time course; type: cell-based, human; settings: 75 ug/mL
Description: as §1, §2

MDA-MB-231 cells = test: as above; type: cell-based, human; settings: 75 ug/mL
Description: as §1, §2

CCTβ = target: T1, CCTβ (Homo sapiens, UniProt P78371); test: Lysate pull-down with CT20p-biotin, immunoblot for CCTβ; type: binding; settings: TNBC cell lines and MCF-10A lysates; more so in the MSL subtypes
T1 construct: probing lysates from the TNBC cell lines and MCF-10A cells with CT20p-biotin; endogenous in cells; host or cells: lysates of MDA-MB-231, MDA-MB-436, MDA-MB-468, BT-549 and MCF-10A cells
Description: Immunoblotting: Cell lysates were obtained by mechanical douncing in fractionation buffer consisting of 210 mM sucrose, 70 mM mannitol, 10 mM HEPES, 1 mM EDTA, pH 7.4. Lysates were centrifuged at 1,000×g for 10 minutes at 4° C., and the supernatants were subjected to SDS-PAGE, followed by transfer to Immobilon-FL membranes (Millipore). Blots were probed with primary antibodies against CCTβ (Millipore), […]. (Abcam), CCTε (Abcam), or p38 (Santa Cruz). Detection was performed by incubation with IRDye 800CW or IRDye 680CW secondary antibodies (LI-COR), followed by imaging on the Oddysey detection system (LI-COR). Quantificition of Western blots was performed with Image Studio software (LI-COR). Proteins of interest were quantified relative to p38 loading controls, then normalized to the level in MCF-10A cells.
(§3) Pull down experiments: Lysate pull-downs were performed with 200 ug cell lysate, obtained by douncing as described above. Lysates were pre-cleared with streptavidin-agarose beads (Pierce), then incubated with […] of CT20-Biotin or biotin for 3 hours at room temperature, followed by overnight incubation at 4° C. with streptavidin-agarose beads. Beads were washed thoroughly with wash buffer (25 mM Tris, 150 mM NaCl, 0.1% NP40, pH7.4), then heated in 4× loading buffer (Invitrogen) for analysis by SDS-PAGE. Mass spectrometric analysis was performed by Moffit Cancer Center (Tampa, FL). […]

CCTβ in MCF-10A cells = target: T2, CCTβ in MCF-10A cells (Homo sapiens, UniProt P78371); test: In-cell pull down (CT20p-biotin in HBPE-nanoparticles), blot for CCTβ; type: cell-based; settings: whole cell lysates
T2 construct: delivered to viable MDA-MB-231 and MCF-10A cells, followed by gentle cell lysis; endogenous in cells; host or cells: MCF-10A (untransfected)
Description: as §3, with “FL). Mass spectrometry results presented are of proteins with at least two unique peptides identified, and that were not recovered with biotin-only pull down. In-cell pull downs were performed by first delivering CT20p-Biotin encapsulated in nanoparticles to viable cells at a dose of 75 μg/mL for varying lengths of time. Following treatment, cells were collected and lysed by douncing. 200 ug of cell lysate were then incubated with streptavidin-agarose beads overnight at 4° C., and pull-down was completed as described above.” for “FL).”
(§4) Because pull downs performed in cell lysates may emphasize non-specific protein interactions, we designed an in-cell pull down assay to better reflect interactions in the intracellular environment. […] Indeed, no pull down was detected with DiI-loaded nanoparticles.

CCTβ in MDA-MB-231 cells = target: T3, CCTβ in MDA-MB-231 cells (Homo sapiens, UniProt P78371); test: as above; type: cell-based; settings: whole cell lysates
T3 construct: delivered to viable MDA-MB-231 and MCF-10A cells, followed by gentle cell lysis; endogenous in cells; host or cells: MDA-MB-231
Description: as §3, with “FL). Mass spectrometry results presented are of proteins with at least two unique peptides identified, and that were not recovered with biotin-only pull down. In-cell pull downs were performed by first delivering CT20p-Biotin encapsulated in nanoparticles to viable cells at a dose of 75 μg/mL for varying lengths of time. Following treatment, cells were collected and lysed by douncing. 200 ug of cell lysate were then incubated with streptavidin-agarose beads overnight at 4° C., and pull-down was completed as described above.” for “FL).”
as §4

tubulin in MCF-10A cells = test: Fixed cell immunofluorescence of tubulin; type: cell-based, human; settings: 24 hours of CT20p treatment
Description: Fixed cell immunofluorescence: Cells were seeded on glass coverslips (Fisher) in a 6-well plate at a density of 150,000 cells/well. Cells at 60% confluency were treated with CT20p or left untreated for 24 hours. After CT20p treatment, cells were stained with Mitotracker Red CMXRos (Life Technologies) at a concentration of 200 nM for 30 minutes, before being fixed in ice cold methanol for 10 minutes at −20° C. Cells were then permeabilized in 0.1% Triton X-100 for 10 minutes at 37° C. Samples were blocked in 5% normal goat serum (Santa Cruz) for 30 minutes at 37° C., then incubated with primary antibody α-tubulin (DM1A) (Santa Cruz) for 3 hours at 37° C. Secondary antibody was goat α-mouse IgG-FITC (Santa Cruz) and was applied for 1 hour at room temperature. Coverslips were mounted in UltraCruz mounting media (Santa Cruz), which contains DAPI for nuclear staining. Images were obtained with a Zeiss LSM 710 microscope, using a Zeiss 63× Pan-Apocromat oil immersion lens and Zeiss Zen software. To determine average tubulin levels per cell, the amount of FITC fluorescence intensity per region of interest was divided by the number of cells in the field. At least four images containing between 5 and 12 cells were quantified for each condition. Image analysis was done using Volocity software (Perkin Elmer). […]

Structure (SMILES): CC[C@H](C)[C@H](NC(=O)[C@@H](NC(=O)[C@H](CC(C)C)NC(=O)[C@H](CO)NC(=O)[C@H](C)NC(=O)[C@@H](NC(=O)[C@H](CC(C)C)NC(=O)[C@@H](NC(=O)CNC(=O)[C@H](C)NC(=O)[C@@H](NC(=O)[C@H](Cc1ccccc1)NC(=O)[C@@H](NC(=O)[C@@H](NC(=O)[C@@H](NC(C)=O)C(C)C)[C@@H](C)O)[C@@H](C)CC)C(C)C)C(C)C)[C@@H](C)O)[C@@H](C)O)C(=O)N[C@@H](Cc1c[nH]c2ccccc12)C(=O)N[C@@H](CCCCN)C(=O)N[C@@H](CCCCN)C(=O)N[C@@H](CCSC)C(=O)NCC(N)=O [CT20] (Ac-VTIFVAGVLTASLTIWKKMG-NH2)
- Earliest time at which characteristics of cell death were displayed (MDA-MB-436 cells): 6 h
- Sensitivity to CT20p cytotoxicity (BT-549 cells): resistant
- Sensitivity to CT20p cytotoxicity (MDA-MB-231 cells): highly susceptible
- Interaction with CCTβ in cell lysates (CCTβ): able to interact with CCTβ in all cell lines
- Effect on total CCTβ protein levels (CCTβ in MCF-10A cells): does not affect
- Effect on total CCTβ protein levels (CCTβ in MDA-MB-231 cells): does not affect
- Amount of tubulin per cell (tubulin in MCF-10A cells): no significant loss
